Laboratory results from US9394298B2, “Pyrroloquinoline quinone tetraalkali salt and crystal thereof, methods for producing these, and composition” (Mitsubishi Gas Chemical Company, Inc., priority 2012, dated 2016).
Where a name gives a salt, the structure may show the parent alone. Read-outs that look alike come from different tables or passages of the source.

Columns and labels:
Type in all cases: physicochemical
Test of the solubility = details: for Solubility Ratio: ratio to Comp. Ex. 1 (Na2PQQ = 1); for Solubility: room temperature of 23° C., calculated from absorbance at 260 nm
Method: 50 mg of each PQQ salt shown in Table 6 was added to 0.5 mL of water so as to become supersaturated. Here, in the case where a PQQ salt was completely dissolved in this concentration, the amount of water was reduced. Thereafter, an ultrasonic wave was applied on the solution at room temperature of 23° C. The solution was subjected to a centrifugal separator; and the supernatant was subjected to a UV measurement by diluting it using a phosphoric acid buffer (pH: 7.4, manufactured by Gibco Corp.) so that the absorbance at 260 nm became in the range of 0 to 1. The solubility was calculated from the absorption.

[1] = Stability in alkalinity, from the liquid chromatography chart; details: solid obtained from alkaline solution
Method: PQQ was identified using the following apparatus.
Apparatus: a high performance liquid chromatography system, Lc-20A, manufactured by Shimadzu Corp.
Column: YMC-Pack ODS-Tms (5 μm), 150×4.6 mm I.D.
Measurement temperature: 40° C.
Detection: absorbance at 260 nm

[2] = Test of the reactivity with ascorbic acid; details: for State of the solution after adding ascorbic acid, after 2 hours / State of the solution after adding ascorbic acid, after 1 day: 1 g/L PQQ salt in water, 1 mL + 0.5 mL of 100 g/L ascorbic acid aqueous solution
Method: Each PQQ salt shown in Table 5 was dissolved in water so as to become 1 g/L. 0.5 mL of a 100 g/L ascorbic acid aqueous solution was added to 1 mL of the solution, and its states after 2 hours, after 1 day and after 2 days were observed.

[3] = Test of the dissolution speed; details: 1 mg salt in 2 mL water; for Absorbance After 1 min / Absorbance After 30 min: absorbance at 450 nm, fully dissolved = 100
Method: 1 mg of each PQQ salt shown in Table 7 was added to an acryl-made absorbance measurement cell, and 2 mL of water was added thereto and the absorbance at 450 nm was measured.

Row | SMILES | Solubility Ratio (Test of the solubility) | Solubility (Test of the solubility; water) [mM] | Decomposed substances / stability in the alkalinity [1] | State of the solution after adding ascorbic acid, after 2 hours [2] | State of the solution after adding ascorbic acid, after 1 day [2] | Absorbance After 1 min [3] | Absorbance After 30 min [3] | Color change with ascorbic acid in a long-term observation [2] | Solubility (Test of the solubility; thermodynamic from solid, water, read-out: Solubility) [mM] | Dissolution speed, in words [3] | Solubility, in words (Test of the solubility; water, 23° C.) | State of the solution after adding ascorbic acid, after 2 hours ([2]; Trisodium Salt) | State of the solution after adding ascorbic acid, after 1 day ([2]; Trisodium Salt)
1 | O=C(O)c1cc(C(=O)O)c2c(n1)C(=O)C(=O)c1cc(C(=O)O)[nH]c1-2.[Li].[Li].[Na].[Na] [Example 6, PQQ Disodium Dilithium Salt] | 11 | 89 | no decomposed substances and was stable even in the alkalinity | red solution | red solution |  |  |  |  |  |  |  | 
2 | O=C([O-])c1cc(C(=O)[O-])c2c(n1)C(=O)C(=O)c1cc(C(=O)O)[nH]c1-2.[Na+].[Na+] [Comp. Ex. 1, PQQ Disodium Salt, reference compound] | 1 | 7.99 |  | brown deposit | brown deposit | 41 | 48 |  |  |  |  |  | 
3 | O=C(O)c1cc(C(=O)O)c2c(n1)C(=O)C(=O)c1cc(C(=O)O)[nH]c1-2.[K].[K].[K].[K] [Example 7, PQQ tetrapotassium salt] | 10.5 | 84 | no decomposed substances and was stable even in the alkalinity | red solution | red solution | 71 | 85 | hardly generated color change |  |  |  |  | 
4 | O=C(O)c1cc(C(=O)O)c2c(n1)C(=O)C(=O)c1cc(C(=O)O)[nH]c1-2 [Example 1, PQQ Tetrasodium Salt] | 58 |  |  | red solution | red solution | 88 | 92 | hardly generated color change | 463 | higher dissolution speed than the PQQ disodium salt |  |  | 
5 | O=C(O)c1cc(C(=O)O)c2c(n1)C(=O)C(=O)c1cc(C(=O)O)[nH]c1-2.[Li].[Li].[Li].[Li] [Example 5, PQQ Tetralithium Salt] | 82 | 655 | no decomposed substances and was stable even in the alkalinity | red solution | red solution |  |  |  |  |  | more easily dissolved than the PQQ tetrasodium salt |  | 
6 | O=C(O)c1cc(C(=O)O)c2c(n1)C(=O)C(=O)c1cc(C(=O)O)[nH]c1-2 [Comp. Ex. 2, PQQ Trisodium Salt, reference compound] | 3.8 | 30.4 |  |  |  |  |  |  |  |  |  | brown deposit | brown deposit
